Counter-ions that a name gives are not always drawn.
What was measured:
[1] = test system: rat agmatinase; experiment: Agmatinase activity assay ([14C]-agmatine hydrolysis); assay type: biochemical; details: for Agmatinase activity remaining (%): Conc = 0.5 mM; for Activity for inhibiting agmatinase, in words: among the 14 test compounds
Method: Agmatinase activity was measured by the method of Satishchandran and Boyle (1986) as detailed in Sastre et al. (1996). The assay is based on the hydrolysis of guanido [^14C]-agmatine to [^14C]-urea and putrescine, and subsequent trapping of [^14C]—CO2 from the labeled urea, by the addition of urease. Assays were carried out for 30 minutes at 37° C. in 300 μl of sample containing 100 mM HEPES, pH 7.8, 4 mM MgSO4, 1 mM dithiothreitol, 10 mM L-agmatine, 7 μM [^14C]-agmatine and 0.06 units of urease. Release of [^14C]—CO2 from [^14C]-urea was measured by trapping the [^14C]—CO2 in filter paper wicks saturated with benzethonium hydroxide. The reaction was stopped by injection of 40% trichloroacetic acid into the reaction chamber and the filters transferred to mini-vials containing 5 mL CYTOSCINT® cocktail (ICN Biomedicals), and counted for radioactivity by liquid scintillation spectrometry using a Beckman model LS 5801 scintillation counter.
(§1) QSAR were studied by ab initio Hartree-Fock calculations with the Gaussian 94 computer program (Frisch et al. 1995). Based on the optimized geometry and van der Waals radius of each atom, calculations were performed with BlogP and BlogW programs (Bodor et al. 1989, 1992A, and 1992B) to determine molecular surfaces, volumes, ovalities, partition coefficients, and water solubilities. Linear combinations of these calculated descriptors were then fitted to the observed enzyme activities. The observed activities were the remaining percentage of rat agmatinase activity at 0.5 mM of each compound, the remaining percentage of rat NOS isozyme activity at 1 mM of each compound, and the remaining percentage of rat brain NMDA receptor binding at 0.1 mM of each compound.

[2] = molecular target: T1, rat nNOS (neuronal NOS) (Rattus norvegicus, UniProt P29476); experiment: NOS activity, [3H]arginine to [3H]citrulline conversion, nNOS; assay type: biochemical; details: Conc = 1 mM
T1 construct: purchased Cayman, Ann Arbor, Mich
Method: (§2) NOS activity was measured by monitoring the conversion of [^3H]arginine to [^3H]citrulline (Bret et al. 1990) using three commercially available isoforms of rat NOS: nNOS (neuronal NOS) (602 units/ml, 14.9 mg/ml), iNOS (inducible NOS) (249.7 units/ml, 21.1 mg/ml), and eNOS (epithelial NOS) (30 units/ml, 14.6 mg/ml) (Cayman, Ann Arbor, Mich.). Neuronal NOS and iNOS were diluted 1:10, while eNOS was used directly without dilution. Unless otherwise indicated, each tube was incubated at 37° C. for 60 minutes. Assay buffer contained 50 mM Tris-HCl, pH7.4, 2 mM CaCl2, 1 mM NADPH, 10 mM BH4, 5 mM FAD, 5 mM FMN, and 10 mg/ml calmodulin plus radioactive precursor. After incubation, the assay reaction was halted by addition of 400 μl of buffer containing 5 mM EDTA and 50 mM HEPES. Equilibrated resin ([…], Dowex AG50WX-8 (Na^+ form) was added and the reaction mixture was transferred to spin cups and into cup holders. The mixture was passed through the Dowex AG50WX-8 resin and the filtrate collected in a spin cup. NOS activity was determined by counting the radioactivity in the flow-through (unbound) fraction. Each assay was measured in triplicate.
as §1

[3] = molecular target: T2, rat iNOS (inducible NOS) (Rattus norvegicus, UniProt Q06518); experiment: NOS activity, [3H]arginine to [3H]citrulline conversion, iNOS; assay type: biochemical; details: Conc = 1 mM
T2 construct: purchased Cayman, Ann Arbor, Mich
Method: as §2, §1

[4] = molecular target: T3, rat eNOS (epithelial NOS) (Rattus norvegicus, UniProt Q62600); experiment: NOS activity, [3H]arginine to [3H]citrulline conversion, eNOS; assay type: biochemical; details: Conc = 1 mM
T3 construct: purchased Cayman, Ann Arbor, Mich
Method: as §2, §1

[5] = test system: rat brain NMDA receptor; experiment: [3H]-MK801 binding assay in rat brain membranes; details: Conc = 0.1 mM
Method: The binding of [^3H]-MK801 to NMDA (N-methyl-D-aspartate) receptors was measured in rat brain membranes as described in Renolds et al. (1990). Briefly, the membranes were incubated in HEPES buffer (pH 7.4) containing 0.4 nM [^3H]-MK801, 100 μM glutamate, and 30 μM glycine for 1 hour at 25° C. The binding was terminated by rapid filtration over glass fiber filters and radioactivity counted. Nonspecific binding was defined using 50 μM unlabelled MK801.
QSAR were studied by ab initio Hartree-Fock calculations with the Gaussian 94 computer program (Frisch et al. 1995). Based on the optimized geometry and van der Waals radius of each atom, calculations were performed with BlogP and BlogW programs (Bodor et al. 1989, 1992A, and 1992B) to determine molecular surfaces, volumes, ovalities, partition coefficients, and water solubilities. Linear combinations of these calculated descriptors were then fitted to the observed enzyme activities.

Compound: C=C[C@](N)(CCCNC(=N)N)C(=O)O (racemic) [Alpha-Vinylarginine]
- Agmatinase activity remaining (%) [1]: 52.0%
- remaining activity at 1000 µM [2]: 4.2%
- remaining activity at 1000 µM [3]: 7%
- remaining activity at 1000 µM [4]: 67.4%
- 3H-MK801 Binding Remaining (%) [5]: 99.7%

Compound: N=C(N)NCCCN [3-Aminopropylguanidine]
- Agmatinase activity remaining (%) [1]: 3.1%
- Activity for inhibiting agmatinase, in words [1]: best activity
- Activity Remaining (%) nNOS [2]: 6.9%
- Activity Remaining (%) iNOS [3]: 5.1%
- Activity Remaining (%) eNOS [4]: 60.8%
- 3H-MK801 Binding Remaining (%) [5]: 93.9%

Compound: O=[N+]([O-])c1cccc2cn[nH]c12 [7-nitroindazole, reference compound]
- remaining activity at 1000 µM [2]: 1%
- remaining activity at 1000 µM [3]: 1%
- remaining activity at 1000 µM [4]: 0%

Compound: N=C(N)NCCCCN.O=S(=O)(O)O [Agmatine sulfate, reference compound]
- Agmatinase activity remaining (%) [1]: 37%
- remaining activity at 1000 µM [2]: 32.5%
- remaining activity at 1000 µM [3]: 35.2%
- remaining activity at 1000 µM [4]: 97.4%
- 3H-MK801 Binding Remaining (%) [5]: 93.8%

Compound: N=C(N)NN [Amino guanidine, reference compound]
- Agmatinase activity remaining (%) [1]: 53%
- remaining activity at 1000 µM [2]: 20%
- remaining activity at 1000 µM [3]: 1%
- remaining activity at 1000 µM [4]: 30%
- 3H-MK801 Binding Remaining (%) [5]: 90.6%

Compound: NC(N)=NCCCCN=C(N)N [Arcaine sulfate, reference compound]
- Agmatinase activity remaining (%) [1]: 29.5%
- remaining activity at 1000 µM [2]: 9.8%
- remaining activity at 1000 µM [3]: 37.8%
- remaining activity at 1000 µM [4]: 83.4%
- 3H-MK801 Binding Remaining (%) [5]: 45.1%

Compound: N=CNCCCNCCCNC=N [Bis (3-(N-Iminomethyl)-aminopropyl)amine]
- Agmatinase activity remaining (%) [1]: 38.0%
- Activity Remaining (%) nNOS [2]: 23.5%
- Activity Remaining (%) iNOS [3]: 65.2%
- Activity Remaining (%) eNOS [4]: 88.7%
- 3H-MK801 Binding Remaining (%) [5]: 99.7%

Compound: Trans-4-Aminocyclohexyl guanidine
- Agmatinase activity remaining (%) [1]: 97.0%
- Activity for inhibiting agmatinase, in words [1]: best activity
- Activity Remaining (%) nNOS [2]: 42.5%
- Activity Remaining (%) iNOS [3]: 99.6%
- Activity Remaining (%) eNOS [4]: 69.4%

Source: patent publication US7347984B2, “Mammalian agmatinase inhibitory substance” (Jackson State University, priority 2004, dated 2008)
